Reference: US20090285887A1, “Pharmaceutical Composition Comprising A Plurality of Mini-Tablets Comprising A Factor XA Inhibitor” (priority 2006, published 2009)

Assay: Preliminary pharmacokinetic analysis of absorption throughout the GI tract
Format: in vivo
Description: In one aspect of the invention, the pharmaceutical composition enables the Factor Xa inhibitor to be absorbed throughout the GI tract, i.e. in the duodenum (proximal small intestine), ileum (distal small intestine) and cecum/colon. […] Accordingly, this comprises a further aspect of the invention.

Compound: C[C@@H](C(=O)N1CCOCC1)N1CC[C@H](NS(=O)(=O)/C=C/c2ccc(Cl)s2)C1=O [Compound A, (E)-2-(5-chlorothien-2-yl)-N-{(3S)-1-[(1S)-1-methyl-2-morpholin-4-yl-2-oxoethyl]-2-oxopyrrolidin-3-yl}ethenesulfonamide]
- absorption throughout the GI tract: may be absorbed throughout the GI tract
